Data reported in ChEMBL document CHEMBL1201862, “PubChem BioAssay data set” (2004).
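Values below derive from 48-hour exposures of cells grown in 96-well plates, with endpoints linearly interpolated between the two concentrations bracketing the appropriate inhibition level. GI50 = concentration required for 50% inhibition of growth.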 The source made the active and inactive calls. Rule as the data show it: active = GI50 up to about 1.1 µM and inactive = higher.

Legend:
Assay in all cases: NCI tumour cell line growth inhibition, 48 h
DMS-273 = system: DMS-273
LXFL 529 = system: LXFL 529
K562 = system: K562
SK-MEL-5 = system: SK-MEL-5
XF498 = system: XF498
OVCAR-3 = system: OVCAR-3
SK-MEL-28 = system: SK-MEL-28
786-0 = system: 786-0
CCRF-CEM = system: CCRF-CEM
HOP-18 = system: HOP-18
OVCAR-4 = system: OVCAR-4
SNB-78 = system: SNB-78
UO-31 = system: UO-31
SN12C = system: SN12C
HCT-15 = system: HCT-15
UACC-257 = system: UACC-257
KM-20L2 = system: KM-20L2
OVCAR-8 = system: OVCAR-8
HOP-62 = system: HOP-62
A549 = system: A549
CAKI-1 = system: CAKI-1
HCC 2998 = system: HCC 2998
LOX IMVI = system: LOX IMVI
DMS-114 = system: DMS-114
RXF 631 = system: RXF 631
NCI-H460 = system: NCI-H460
COLO 205 = system: COLO 205
M14 = system: M14
HCT-116 = system: HCT-116
NCI-H522 = system: NCI-H522
HOP-92 = system: HOP-92
DLD-1 = system: DLD-1
M19-MEL = system: M19-MEL
SF-539 = system: SF-539
SF-268 = system: SF-268
A498 = system: A498
EKVX = system: EKVX
U-251 = system: U-251
SNB-75 = system: SNB-75
ACHN = system: ACHN
UACC-62 = system: UACC-62
IGROV-1 = system: IGROV-1
KM12 = system: KM12
SF-295 = system: SF-295
NCI-H23 = system: NCI-H23
HT-29 = system: HT-29
SW-620 = system: SW-620
Malme-3M = system: Malme-3M
SK-OV-3 = system: SK-OV-3
OVCAR-5 = system: OVCAR-5
SNB-19 = system: SNB-19
HL-60 = system: HL-60
RXF 393 = system: RXF 393
TK-10 = system: TK-10
SK-MEL-2 = system: SK-MEL-2
NCI-H226 = system: NCI-H226
SR = system: SR
RPMI-8226 = system: RPMI-8226

Measured: GI50

O=c1/c(=C/c2c(O)ccc3ccccc23)sc2nc3ccccc3n12
> 100 µM: HCT-15
inactive: DMS-273 > 100 µM | LXFL 529 > 100 µM | K562 > 100 µM | SK-MEL-5 > 100 µM | XF498 > 100 µM | OVCAR-3 > 100 µM | SK-MEL-28 > 100 µM | 786-0 > 100 µM | CCRF-CEM > 100 µM | HOP-18 > 100 µM | OVCAR-4 > 100 µM | SNB-78 > 100 µM | UO-31 > 100 µM | SN12C > 100 µM | UACC-257 > 100 µM | KM-20L2 > 100 µM | OVCAR-8 > 100 µM | HOP-62 > 100 µM | A549 > 100 µM | CAKI-1 > 100 µM | HCC 2998 > 100 µM | LOX IMVI > 100 µM | DMS-114 > 100 µM | RXF 631 > 100 µM | NCI-H460 > 100 µM | COLO 205 > 100 µM | M14 > 100 µM | HCT-116 > 100 µM | NCI-H522 > 100 µM | HOP-92 > 100 µM | DLD-1 > 100 µM | M19-MEL > 100 µM | SF-539 > 100 µM | SF-268 > 100 µM | A498 > 100 µM | EKVX > 100 µM | U-251 > 100 µM | SNB-75 > 100 µM | ACHN > 100 µM | UACC-62 > 100 µM | IGROV-1 > 100 µM | KM12 > 100 µM | SF-295 > 100 µM | NCI-H23 > 100 µM | HT-29 > 100 µM | SW-620 > 100 µM | Malme-3M > 100 µM | SK-OV-3 > 100 µM | OVCAR-5 > 100 µM | SNB-19 > 100 µM | HL-60 > 100 µM | RXF 393 > 100 µM | TK-10 > 100 µM | SK-MEL-2 > 100 µM | NCI-H226 > 100 µM

COc1ccc(/C(Cl)=C(/c2ccc(O)cc2)c2ccc(OCCN(C)C)cc2)cc1
11.3 µM: HCT-15
inactive: DMS-273 11.1 µM | LXFL 529 10.8 µM | SK-MEL-5 4.28 µM | XF498 3.65 µM | OVCAR-3 15.3 µM | SK-MEL-28 4.38 µM | 786-0 6.03 µM | HOP-18 12.5 µM | OVCAR-4 13.9 µM | SNB-78 14.5 µM | UO-31 7.03 µM | SN12C 12.9 µM | UACC-257 2.9 µM | SR 2.9 µM | KM-20L2 3.1 µM | OVCAR-8 15.5 µM | HOP-62 13.6 µM | A549 13.8 µM | CAKI-1 14.3 µM | HCC 2998 16.7 µM | LOX IMVI 2.96 µM | DMS-114 7.18 µM | RXF 631 12.4 µM | RPMI-8226 5.96 µM | NCI-H460 12.7 µM | COLO 205 9.86 µM | M14 2.1 µM | NCI-H522 12.1 µM | DLD-1 15.7 µM | M19-MEL 3.72 µM | SF-539 11.5 µM | SF-268 11.8 µM | EKVX 16.6 µM | U-251 11.2 µM | SNB-75 11 µM | ACHN 14.6 µM | UACC-62 16.6 µM | IGROV-1 16.4 µM | KM12 9.14 µM | SF-295 4.78 µM | NCI-H23 15.6 µM | HT-29 2.13 µM | SW-620 11.9 µM | Malme-3M 4.62 µM | SK-OV-3 13.1 µM | OVCAR-5 13.3 µM | SNB-19 14.1 µM | HL-60 10.2 µM | RXF 393 5.12 µM | TK-10 19.7 µM | SK-MEL-2 10.4 µM | NCI-H226 16.1 µM
